In publication PMC2906706 (Cancer research, 2010):

How the values were obtained:
[1] = biological target: T1, OCT1 (Homo sapiens, UniProt O15245); test: inhibition of ASP+ uptake in HEK293 cells over-expressing OCT1; assay type: cell-based
T1 sequence (O15245 1-554): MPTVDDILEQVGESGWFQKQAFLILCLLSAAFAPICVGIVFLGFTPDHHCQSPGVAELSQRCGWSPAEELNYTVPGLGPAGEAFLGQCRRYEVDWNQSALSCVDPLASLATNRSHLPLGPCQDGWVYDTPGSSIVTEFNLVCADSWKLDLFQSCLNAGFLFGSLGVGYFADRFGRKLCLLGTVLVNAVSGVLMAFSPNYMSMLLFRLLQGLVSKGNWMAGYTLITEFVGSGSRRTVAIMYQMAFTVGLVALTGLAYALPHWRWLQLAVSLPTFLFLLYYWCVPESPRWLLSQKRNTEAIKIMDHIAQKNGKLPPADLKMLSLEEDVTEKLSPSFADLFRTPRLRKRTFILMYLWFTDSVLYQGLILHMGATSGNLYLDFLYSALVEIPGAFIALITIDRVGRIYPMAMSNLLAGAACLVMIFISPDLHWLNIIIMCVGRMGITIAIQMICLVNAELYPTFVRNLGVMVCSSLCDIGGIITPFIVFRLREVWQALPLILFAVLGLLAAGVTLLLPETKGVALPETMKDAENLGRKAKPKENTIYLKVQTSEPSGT

[2] = biological target: OCT2 (Homo sapiens, UniProt O15244); test: inhibition of ASP+ uptake in HEK293 cells over-expressing OCT2; assay type: cell-based
OCT2, sequence (O15244 whole entry): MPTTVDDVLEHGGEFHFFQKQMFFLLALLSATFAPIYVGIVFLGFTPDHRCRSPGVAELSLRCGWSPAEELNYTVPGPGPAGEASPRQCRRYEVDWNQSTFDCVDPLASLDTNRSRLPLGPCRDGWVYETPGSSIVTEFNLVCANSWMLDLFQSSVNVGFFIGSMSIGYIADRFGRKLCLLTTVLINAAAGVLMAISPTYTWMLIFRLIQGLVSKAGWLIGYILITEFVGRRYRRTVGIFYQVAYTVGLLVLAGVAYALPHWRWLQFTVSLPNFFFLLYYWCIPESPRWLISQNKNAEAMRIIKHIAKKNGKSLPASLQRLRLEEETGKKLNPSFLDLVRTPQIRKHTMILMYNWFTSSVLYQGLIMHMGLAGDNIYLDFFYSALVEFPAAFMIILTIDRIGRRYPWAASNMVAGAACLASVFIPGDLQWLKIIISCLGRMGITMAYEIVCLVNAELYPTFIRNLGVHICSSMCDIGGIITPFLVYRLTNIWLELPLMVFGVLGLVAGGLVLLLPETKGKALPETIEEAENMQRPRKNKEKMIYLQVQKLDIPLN

- IC50 [1]: 27.1 µM
- IC50 [2]: 0.46 µM
SMILES: CN1CCN(CCOc2cc(OC3CCOCC3)c3c(Nc4c(Cl)ccc5c4OCO5)ncnc3c2)CC1 [saracatinib, N-(5-chloro-1,3-benzodioxol-4-yl)-7-[2-(4-methylpiperazin-1-yl)ethoxy]-5-(tetrahydro-2H-pyran-4-yloxy)quinazolin-4-amine]
